Data: US7160708B2, “Fatty alcohol oxidase genes and proteins from Candida tropicalis and methods relating thereto” (Cognis Corporation, priority 2002, dated 2007)

Legend:
FAO1 = FAO1 (Candida tropicalis, UniProt Q6QIR6); assay: FAO enzyme assay (HRP/ABTS coupled) with FAO1 expressed in E. coli: substrate specificity and Km; settings: for Activity of FAO1 with the alcohol (substrate specificity): 200 μM alcohol, relative to dodecanol set at 100%, FIG. 4-6
Excerpt: (§1) The assay is a two-enzyme coupled reaction. […] ABTS absorbs strongly at 405 nm.

FAO2a = FAO2a (Candida tropicalis, UniProt Q6QIR5, S177L); type: biochemical; settings: for Km FAO2a: pH 7.6, HEPES/Triton X-100 buffer, enzyme constant, alcohol concentration varied; for Activity of FAO2a with the alcohol (substrate specificity): 200 μM alcohol, relative to dodecanol set at 100%, FIG. 4-6
Excerpt: as §1

FAO1 or FAO2 = assay: Alcohols used for substrate specificity testing, activity detected with either enzyme; type: biochemical, Candida tropicalis; parameters: key: X: Activity detected using this substrate with either FAO1 or FAO2; settings: final alcohol concentration 200 μM
Excerpt: The assay procedure used is a modification of an assay used by Kemp et al (1). The assay is a two-enzyme coupled reaction. Dodecanol was used as the substrate for the FAO, which oxidizes the dodecanol to dodecanal. At the same time it reduces molecular oxygen to hydrogen peroxide. A second enzyme in the reaction mixture, peroxidase derived from horseradish (HRP), uses electrons obtained by oxidizing hydrogen peroxide to […] 2,2′-azino-bis(3-ethylbenzthiazoline-6-sulfonic acid) (ABTS) in the reaction mixture. […] absorbs strongly at 405 nm. The quality of HRP is important, since it has been observed that commercially obtained preparations vary in quality. It is necessary, therefore, to obtain preparations of highest purity. The HRP (Sigma #P8415) was made at a concentration of 2 mg/ml (≈250 units/mg) in 50 mM potassium phosphate buffer, pH 7.6.
After adding the extract, the activity was generally read at 405 nm for one minute at room temperature. The amount of extract that was added to the reaction mixture was varied so that the activity fell within the range of 0.2 to 1.0 ΔA^405 nm/min. Alcohol oxidase activity was reported as specific activity units/mg protein (1 unit=μmole substrate oxidized/min). An extinction coefficient at 405 nm of 18.4 was used for ABTS and was equivalent to 0.5 mM oxidized substrate. In certain substrate-specificity experiments, 200 mM HEPES buffer, pH 7.6, containing 0.5% Triton X100 was used in place of the 200 mM HEPES buffer in the reaction mixture described above. The detergent aided in solubilizing some of the more water-insoluble substrates tested.
FAO1, FAO2a and FAO2a′ were tested for their activity with various alcohols. The alcohols shown in Table 5 were prepared in 20 mM stock solutions in acetone. Alcohols showing activity with either FAO1 or FAO2a are indicated. The final concentration of the alcohol used in the substrate specificity experiment was 200 μM. These same alcohols were used to determine the Km and Vmax of FAO1, FAO2a, and FAO2a′. […] There was a big drop in activity in going from a C8 alcohol to a C6 alcohol with FAO1, FAO2a, and FAO2a′. FAO2a and FAO2a′ oxidize 2-octanols fairly well; however no activity was detected with FAO1. In contrast, FAO1 oxidizes ω-hydroxy fatty acids well, but no activity for ω-hydroxy fatty acids was measured with FAO2a and FAO2a′ (FIG. 6). […] Although the substrate specificity of FAO2b was not performed, due to the close homology with FAO2a, it is likely to be very similar.

fatty alcohol oxidase = assay: FAO activity of extracts made from fermentor samples induced with HOSFFA; type: biochemical, Candida tropicalis; settings: data not shown
Excerpt: as §1

[1] = system: FAO from C. tropicalis (ATCC 20336); settings: cited from earlier work; for Oxidation by purified C. tropicalis FAO: purified enzyme (ref. 3); for Oxidation by C. tropicalis FAO (Kemp et al. 1988): cells grown on hexadecane
CCCCCCCCCC(C)O = assay: purified protein, by the assay type
CCCCCCCCCCC(O)CO = assay: purified protein, by the assay type
CCCCCCCCCCCCO = assay: purified protein, by the assay type
CCCCCCCCCCO = assay: purified protein, by the assay type
OCCCCCCCCCCO = assay: purified protein, by the assay type
C=CCCCCCCCCCO = assay: purified protein, by the assay type
CCCCCCCCCCCCCCC(C)O = assay: purified protein, by the assay type
CCCCCCCCCCCCCCO = assay: purified protein, by the assay type
CCCCCCCCC(C)O = assay: purified protein, by the assay type
CCCCCCCCO = assay: purified protein, by the assay type
CCCCCCCCCCC(C)O = assay: purified protein, by the assay type
CCCCCCCCCCCCCCCCO = assay: purified protein, by the assay type
OCCCCCCCCCCCCCCCCO = assay: purified protein, by the assay type
FAO from C. maltosa = settings: cited from earlier work
FAO2a′ = FAO2a′ (Candida tropicalis, UniProt Q6QIR5); assay: FAO enzyme assay (HRP/ABTS coupled) with FAO2a′ (CTG-codon-altered FAO2a) expressed in E. coli: substrate specificity and Km; settings: 200 μM alcohol; relative to dodecanol set at 100%; FIG. 4-6
Procedure: The assay is a two-enzyme coupled reaction. […] At the same time it reduces molecular oxygen to hydrogen peroxide. A second enzyme in the reaction mixture, peroxidase derived from horseradish (HRP), uses electrons obtained by oxidizing hydrogen peroxide to reduce 2,2′-azino-bis(3-ethylbenzthiazoline-6-sulfonic acid) (ABTS) in the reaction mixture. Reduced ABTS absorbs strongly at 405 nm. […] The HRP (Sigma #P8415) was made at a concentration of 2 mg/ml (≈250 units/mg) in 50 mM potassium phosphate buffer, pH 7.6.
Initially, only the properties of the enzyme derived from the native sequence of FAO2a were determined. […] The properties of both FAO2a and FAO2a′ were determined as described in the following examples.
FAO1, FAO2a and FAO2a′ were tested for their activity with various alcohols. The alcohols shown in Table 5 were prepared in 20 mM stock solutions in acetone. […] The final concentration of the alcohol used in the substrate specificity experiment was 200 μM. These same alcohols were used to determine the Km and Vmax of FAO1, FAO2a, and FAO2a′.
(§2) In this case, all reactions contained the same amount of acetone (20 μl/ml).
O=C(O)CCCCCCCCCCCCCCCO = assay: purified protein, by the assay type; settings: other: pH 7.6, HEPES/Triton X-100 buffer, enzyme constant, alcohol concentration varied
Excerpt: The assay is a two-enzyme coupled reaction. […] At the same time it reduces molecular oxygen to hydrogen peroxide. A second enzyme in the reaction mixture, peroxidase derived from horseradish (HRP), uses electrons obtained by oxidizing hydrogen peroxide to reduce 2,2′-azino-bis(3-ethylbenzthiazoline-6-sulfonic acid) (ABTS) in the reaction mixture. Reduced ABTS absorbs strongly at 405 nm. The quality of HRP is important, since it has been observed that commercially obtained preparations vary in quality. It is necessary, therefore, to obtain preparations of highest purity. The HRP (Sigma #P8415) was made at a concentration of 2 mg/ml (≈250 units/mg) in 50 mM potassium phosphate buffer, pH 7.6.
FAO1, FAO2a and FAO2a′ were tested for their activity with various alcohols. […] The final concentration of the alcohol used in the substrate specificity experiment was 200 μM. These same alcohols were used to determine the Km and Vmax of FAO1, FAO2a, and FAO2a′.
as §2

[2] = other: 0.1 M HEPES, pH 7.6, substrate stocks in acetone (20 μl/ml)
[3] = other: pH 7.6, HEPES/Triton X-100 buffer, enzyme constant, alcohol concentration varied

Chain of FAO2a (Q6QIR5 whole entry S177L): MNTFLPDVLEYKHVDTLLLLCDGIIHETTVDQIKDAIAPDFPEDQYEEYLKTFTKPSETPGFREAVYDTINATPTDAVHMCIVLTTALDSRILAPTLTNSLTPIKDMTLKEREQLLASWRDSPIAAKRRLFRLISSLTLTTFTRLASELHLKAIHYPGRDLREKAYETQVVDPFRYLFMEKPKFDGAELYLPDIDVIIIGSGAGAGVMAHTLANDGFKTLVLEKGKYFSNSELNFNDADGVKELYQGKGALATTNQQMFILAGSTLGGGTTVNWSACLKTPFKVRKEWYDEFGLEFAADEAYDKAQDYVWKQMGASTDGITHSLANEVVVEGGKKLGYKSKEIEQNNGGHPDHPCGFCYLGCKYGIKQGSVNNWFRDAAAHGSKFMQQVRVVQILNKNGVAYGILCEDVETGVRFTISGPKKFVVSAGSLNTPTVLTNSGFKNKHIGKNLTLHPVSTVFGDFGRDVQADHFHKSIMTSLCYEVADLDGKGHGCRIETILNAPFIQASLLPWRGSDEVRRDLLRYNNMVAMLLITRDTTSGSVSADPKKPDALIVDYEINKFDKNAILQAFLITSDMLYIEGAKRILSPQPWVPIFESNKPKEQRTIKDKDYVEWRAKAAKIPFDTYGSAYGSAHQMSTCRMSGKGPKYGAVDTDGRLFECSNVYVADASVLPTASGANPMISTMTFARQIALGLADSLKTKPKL
Chain of FAO1 (Q6QIR6 entry or part of it): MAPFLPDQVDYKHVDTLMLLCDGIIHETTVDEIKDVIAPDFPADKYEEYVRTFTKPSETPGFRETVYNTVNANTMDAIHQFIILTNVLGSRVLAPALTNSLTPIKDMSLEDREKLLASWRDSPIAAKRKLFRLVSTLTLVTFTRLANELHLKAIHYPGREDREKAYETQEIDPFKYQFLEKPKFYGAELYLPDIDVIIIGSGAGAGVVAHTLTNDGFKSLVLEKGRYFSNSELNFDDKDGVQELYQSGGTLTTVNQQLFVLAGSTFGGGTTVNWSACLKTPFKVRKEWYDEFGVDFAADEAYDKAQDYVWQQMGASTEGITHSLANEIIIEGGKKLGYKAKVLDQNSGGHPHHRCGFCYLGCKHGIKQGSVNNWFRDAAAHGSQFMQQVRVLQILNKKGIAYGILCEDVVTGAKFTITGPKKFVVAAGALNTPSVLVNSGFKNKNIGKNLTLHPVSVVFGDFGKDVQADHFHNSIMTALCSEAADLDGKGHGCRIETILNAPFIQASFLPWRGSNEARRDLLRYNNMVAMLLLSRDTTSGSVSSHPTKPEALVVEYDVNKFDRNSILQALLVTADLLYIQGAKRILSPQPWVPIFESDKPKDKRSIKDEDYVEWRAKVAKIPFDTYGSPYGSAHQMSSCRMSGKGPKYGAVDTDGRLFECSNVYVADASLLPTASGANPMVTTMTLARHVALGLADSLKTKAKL
Chain of FAO2a′ (Q6QIR5 entry or part of it): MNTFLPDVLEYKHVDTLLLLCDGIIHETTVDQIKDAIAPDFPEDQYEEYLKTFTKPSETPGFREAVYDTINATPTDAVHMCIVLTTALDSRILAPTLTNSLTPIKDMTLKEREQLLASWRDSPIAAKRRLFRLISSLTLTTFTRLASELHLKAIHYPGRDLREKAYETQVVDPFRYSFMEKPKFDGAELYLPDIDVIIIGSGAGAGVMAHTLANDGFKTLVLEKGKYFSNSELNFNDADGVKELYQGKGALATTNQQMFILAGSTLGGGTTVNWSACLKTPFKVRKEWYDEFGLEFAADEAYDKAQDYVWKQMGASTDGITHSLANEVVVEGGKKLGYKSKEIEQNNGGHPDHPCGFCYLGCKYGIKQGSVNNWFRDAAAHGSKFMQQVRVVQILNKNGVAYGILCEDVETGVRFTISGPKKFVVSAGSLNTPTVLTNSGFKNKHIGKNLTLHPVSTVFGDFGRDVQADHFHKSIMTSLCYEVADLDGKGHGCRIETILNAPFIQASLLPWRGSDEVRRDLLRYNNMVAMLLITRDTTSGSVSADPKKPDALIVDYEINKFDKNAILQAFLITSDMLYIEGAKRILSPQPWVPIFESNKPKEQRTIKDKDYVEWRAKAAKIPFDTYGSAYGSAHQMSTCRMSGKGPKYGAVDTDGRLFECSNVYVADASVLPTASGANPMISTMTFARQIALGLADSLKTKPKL

CCCCCCCCCCCCCCO [Tetradecanol]
Activity of FAO1 with the alcohol (substrate specificity) (FAO1): the preferred longer-chain alcohol
Km FAO2a (FAO2a): lowest Km values
Activity Detected (FAO1 or FAO2): X

CCCCCCCCCCC(C)O (centres unmarked) [2-Dodecanol]
Activity of extracts from HOSFFA-induced fermentor samples with the alcohol (fatty alcohol oxidase): no activity
Activity Detected (FAO1 or FAO2): X
Oxidation by purified C. tropicalis FAO [1]: additional activity

CCCCCCC(O)CO (centres unmarked) [1,2-Octanediol]
Activity Detected (FAO1 or FAO2): X

CCCCCCCCC(C)O (centres unmarked) [2-Decanol]
Activity Detected (FAO1 or FAO2): X

CCCCCCO [Hexanol]
Activity Detected (FAO1 or FAO2): X

FAO2a′ (Candida tropicalis)
Km (CCCCCCCCCC(C)O; [2]): 162 µM
Km (CCCCCCCCCCC(O)CO; [2]): 928 µM
Km (CCCCCCCCCCCCO; [2]): 4.4 µM
Km (CCCCCCCCCCO; [2]): 69.6 µM
Km (OCCCCCCCCCCO; [2]): 1607 µM
Km (C=CCCCCCCCCCO; [2]): 36.1 µM
Km (CCCCCCCCCCCCCCC(C)O; [2]): 720 µM
Km (CCCCCCCCCCCCCCO; [2]): 2.4 µM
Km (CCCCCCCCC(C)O; [2]): 1090 µM
Km (CCCCCCCCO; [2]): 654 µM
Km (CCCCCCCCCCC(C)O; [2]): 75.3 µM
Km (CCCCCCCCCCCCCCCCO; [2]): 85 µM
Km (OCCCCCCCCCCCCCCCCO; [2]): 16.3 µM

OCCCCCCCCCCCCCCCCO [1,16-Hexadecanediol]
Activity Detected (FAO1 or FAO2): X

CCCCCCCCCCC(O)CO (centres unmarked) [1,2-Dodecanediol]
Activity Detected (FAO1 or FAO2): X

O=C(O)CCCCCCCCCCCO [12-Hydroxydodecanoic acid]
Activity Detected (FAO1 or FAO2): X
Oxidation by C. tropicalis FAO (Kemp et al. 1988) [1]: not
Oxidation by purified C. tropicalis FAO [1]: additional activity

O=C(O)CCCCCCCCCO [10-Hydroxydecanoic acid]
Activity Detected (FAO1 or FAO2): X

FAO2a (Candida tropicalis; S177L)
Km (CCCCCCCCCC(C)O; [3]): 141 µM
Km (CCCCCCCCCCC(O)CO; [3]): 998 µM
Km (CCCCCCCCCCCCO; [3]): 2.5 µM
Km (CCCCCCCCCCO; [3]): 74 µM
Km (OCCCCCCCCCCO; [3]): 425 µM
Km (C=CCCCCCCCCCO; [3]): 45 µM
Km (CCCCCCCCCCCCCCC(C)O; [3]): 350 µM
Km (CCCCCCCCCCCCCCO; [3]): 4.6 µM
Km (CCCCCCCCC(C)O; [3]): 934 µM
Km (CCCCCCCCO; [3]): 503 µM
Km (CCCCCCCCCCC(C)O; [3]): 41.3 µM
Km (CCCCCCCCCCCCCCCCO; [3]): 56 µM
Km (OCCCCCCCCCCCCCCCCO; [3]): 37.3 µM

O=C(O)CCCCCCCCCCCCCCCO [16-hydroxy-hexadecanoic, 16-hydroxyhexadecanoic acid]
Activity of extracts from HOSFFA-induced fermentor samples with the alcohol (fatty alcohol oxidase): good activity
Km FAO1 (FAO1; pH 7.6, HEPES/Triton X-100 buffer, enzyme constant, alcohol concentration varied): lowest Km value
Oxidation by C. maltosa FAO (FAO from C. maltosa): fairly low rates of oxidation
Oxidation by C. tropicalis FAO (Kemp et al. 1988) [1]: oxidize

CCCCCCCCO [Octanol]
Activity of FAO1 with the alcohol (substrate specificity) (FAO1): preferred 1-octanol as substrate
Oxidation by C. maltosa FAO (FAO from C. maltosa): highest activity
Activity Detected (FAO1 or FAO2): X

16-Hydroxydodecanoic acid
Activity Detected (FAO1 or FAO2): X

OCCCCCCCCCCO [1,10-Decanediol]
Activity Detected (FAO1 or FAO2): X

CCCCCCCCCCCCO [Dodecanol]
Activity of FAO2a′ with the alcohol (substrate specificity) (FAO2a′): preferred 1-dodecanol above all other 1-alkanols
Activity of FAO2a with the alcohol (substrate specificity) (FAO2a): preferred 1-dodecanol above all other 1-alkanols
Km FAO2a (FAO2a): lowest Km values
Activity Detected (FAO1 or FAO2): X
Oxidation by C. tropicalis FAO (Kemp et al. 1988) [1]: maximal activity

CCCCCCCCCCCCCCCCO [Hexadecanol]
Activity Detected (FAO1 or FAO2): X

FAO1 (Candida tropicalis)
Km (CCCCCCCCCCCCO; [3]): 14.9 μM μM
Km (CCCCCCCCCCO; [3]): 15.1 μM μM
Km (OCCCCCCCCCCO; [3]): 67.0 μM μM
Km (C=CCCCCCCCCCO; [3]): 9.9 μM μM
Km (CCCCCCCCCCCCCCO; [3]): 28.1 μM μM
Km (O=C(O)CCCCCCCCCCCCCCCO): 7.4 μM μM
Km (CCCCCCCCO; [3]): 41.0 μM μM
Km (CCCCCCCCCCCCCCCCO; [3]): 11.9 μM μM
Km (OCCCCCCCCCCCCCCCCO; [3]): 10.3 μM μM

C=CCCCCCCCCCO [10-Undecen-1-ol]
Activity of FAO2a′ with the alcohol (substrate specificity) (FAO2a′): much better than FAO1
Activity of FAO2a with the alcohol (substrate specificity) (FAO2a): much better than FAO1
Activity Detected (FAO1 or FAO2): X

CCCCCCCCCC(C)O (centres unmarked) [2-Undecanol]
Activity Detected (FAO1 or FAO2): X

CCCCCCCCCCCCCCC(C)O (centres unmarked) [2-Hexadecanol]
Activity Detected (FAO1 or FAO2): X

CCCCCCCCCCO [Decanol]
Activity Detected (FAO1 or FAO2): X
